The assay relates to HeLa Env/CEM cell fusion, luciferase, 16-24 h. Kind of assay: blockers of HIV-1 ZM109 envelope-driven cell-cell fusion – HeLa effector, CEM target cells, luciferase, cherry-pick, dose response (AID 652058).

Each structure is given as a SMILES string. Results filed as inconclusive are left out.

On to `O=C(C[C@H]1C[C@H]2c3cc(NC(=O)c4ccc5c(c4)OCO5)ccc3O[C@H]2[C@H](CO)O1)NCc1ccc(Oc2ccccc2)cc1`, for which the AC50 (in general, the concentration at which the activity in the assay is half-maximal) was 13.7 µM.

(Values after PubChem BioAssay AID652058 (Broad Institute, 2013).)
